Measurements taken from patent US20220401414A1, “TREATMENT AND PREVENTION OF A NEURODEGENERATIVE DISORDER” (Inflazome Limited, priority 2019, published 2022).

Legend:
[1] = test system: PFF-Synuclein model of Parkinson's disease; experiment: Study H: rotarod test in the PFF-Synuclein mouse model; type: in vivo, C57BL6 mice; details: 4, 6, 8 and 10 months
Description: (§1) To determine the oral efficacy of the compound of formula (I) in a chronic progressive model of Parkinson's disease (PD), the preformed fibrils (PFF) mouse model, using a prophylactic and therapeutic dosing schedule.
8-week-old C57BL6 male mice (obtained from ARC, Perth, Australia) were housed under a 12-h light cycle in a SPF climate-controlled facility with food and water provided ad libitum for two weeks prior to study initiation. The compound of formula (I) (or water alone for control animals) was administrated to mice in drinking water at 0.3 mg/ml. Animals were separated into the groups described in Table 9, with ten animals initiated in each cohort. […]
Recombinant human a-synuclein was obtained from rPeptide Inc., and in vitro fibril generation was performed with a final concentration of 2 mg/ml in phosphate-buffered saline (PBS) by incubation at 37° C. with agitation in an orbital mixer (400 rpm) for 7 days with daily cycles of sonication used to break down fibrillar aggregates as outlined in previously published reports (see Luk et al., Science, 2012, vol. 338(6109), pp. 949-53; and Zhang et al., Methods Mol. Biol., 2019, vol. 1948, pp. 45-57, which are incorporated in their entirety herein by reference). The generation of fibrillar α-synuclein species was confirmed by transmission electron microscopy and Thioflavin T fluorescence prior to use. […]

[2] = test system: PFF-Synuclein model of Parkinson's disease; experiment: Study H: LC-MS/MS quantification of striatal dopamine and metabolites in the PFF-Synuclein mouse model; type: in vivo, C57BL6 mice; details: ipsilateral striatum, 12 months
Description: as §1
8-week-old C57BL6 male mice (obtained from ARC, Perth, Australia) were housed under a 12-h light cycle in a SPF climate-controlled facility with food and water provided ad libitum for two weeks prior to study initiation. The compound of formula (I) (or water alone for control animals) was administrated to mice in drinking water at 0.3 mg/ml. Animals were separated into the groups described in Table 9, with ten animals initiated in each cohort. For prophylactic dosing, treatment commenced one day prior to PFF-Synuclein injection. For therapeutic dosing, treatment commenced 4 months after disease induction with PFF-Synuclein.
Recombinant human a-synuclein was obtained from rPeptide Inc., and in vitro fibril generation was performed with a final concentration of 2 mg/ml in phosphate-buffered saline (PBS) by incubation at 37° C. with agitation in an orbital mixer (400 rpm) for 7 days with daily cycles of sonication used to break down fibrillar aggregates as outlined in previously published reports (see Luk et al., Science, 2012, vol. 338(6109), pp. 949-53; and Zhang et al., Methods Mol. Biol., 2019, vol. 1948, pp. 45-57, which are incorporated in their entirety herein by reference). The generation of fibrillar α-synuclein species was confirmed by transmission electron microscopy and Thioflavin T fluorescence prior to use.
. The lesion was performed using a 5 μl Hamilton syringe to deliver either vehicle or human PFF-Synuclein (8 μg) at the following coordinates relative to bregma: AP: +0.5 mm; ML: −2.0 mm; DV: −3.0 mm into the right dorsal striatum according to the stereotaxic atlas (“The mouse brain in stereotaxic coordinates” by Paxinos and Franklin, 1997). After drilling a 1 mm burr-hole in the skull, a 2 μl volume of solution was infused at the target site at the rate of 0.2 μl per minute. The needle was held in place for at least 5 minutes after injection to minimize retrograde flow along the needle tract. […]
At 12 months mice were sacrificed and striatal tissue was micro-dissected, weighed and snap-frozen at −80° C. […] Striatal dopamine (DA) and its metabolites (DOPAC and HVA) were quantified in their stable derivative form in the presence of internal standard 3,4-dihydroxybenzylamine (DHBA) using highly sensitive liquid chromatography-tandem mass spectrometry (LC-MS/MS) as described previously (Park et al., Biol. Pharm. Bull., 2013, vol. 36(2), pp. 252-8). […] For quantitation, one transition per analyte was monitored and two transitions per analyte were monitored for qualitative purposes.

[3] = prophylactic and therapeutic treated mice

CC(C)n1ccc(S(=O)(=O)NC(=O)Nc2c3c(cc4c2CCC4)CCC3)n1 [compound of formula (I)]
performance on the rotarod ([1]; prophylactic: 0.3 mg/ml in drinking water from 24 h before PFF injection): improved performance on the rotarod
performance on the rotarod ([1]; therapeutic: 0.3 mg/ml in drinking water from 4 months after PFF injection): improved performance on the rotarod
striatal DOPAC compared to the untreated PFF mice [2, 3]: significantly higher
striatal HVA compared to the untreated PFF mice [2, 3]: significantly higher
striatal dopamine concentrations compared with untreated PFF-syn mice ([2]; prophylactic, P<0.02): significantly higher striatal dopamine concentrations
striatal dopamine concentrations compared with untreated PFF-syn mice ([2]; therapeutic, P<0.05): significantly higher striatal dopamine concentrations
